# Experiments:
# [1] = target: T1, Protein farnesyltransferase (Homo sapiens, UniProt P49354+P49356); assay: In vitro inhibition of Ras processing in COS cells; type: functional, cell-based
# [2] = target: T1, Protein farnesyltransferase; assay: In vitro FPT potency by measuring the ability to inhibit the transfer of [3H]farnesyl from farnesyl pyrophosphate to H-Ras-CLVS.; type: protein-complex assay
# [3] = target: T1, Protein farnesyltransferase; assay: In vitro inhibition of [3H]farnesyl incorporation into H-Ras-CLVS by farnesyl transferase at 1.2 uM; type: protein-complex assay
# [4] = target: T1, Protein farnesyltransferase; assay: In vitro inhibition of Ras processing by COS cells at 20 uM; type: functional, cell-based
# [5] = target: T1, Protein farnesyltransferase; assay: In vitro inhibition of [3H]farnesyl incorporation into H-Ras-CLVS by farnesyl transferase at 0.042 uM; type: protein-complex assay
# [6] = target: T1, Protein farnesyltransferase; assay: In vitro inhibition of [H]-farnesyl incorporation into H-Ras-CLVS by farnesyl transferase at 1.3 uM; type: protein-complex assay
Structure (SMILES),IC50 [2] [nM],other results
O=C(Cc1cc[n+]([O-])cc1)N1CCC(=C2c3ccc(Cl)cc3SCc3cccnc32)CC1,520,IC50 [1]: 10000 nM
O=C(CC1CCNCC1)N1CCC(=C2c3ccc(Cl)cc3S(=O)(=O)Cc3cccnc32)CC1,,inhibition [3]: 28%
O=C(Cc1ccncc1)N1CCN(C2c3ccc(Cl)cc3S(=O)(=O)Cc3cccnc32)CC1 (stereo not given),1000,
N#CN=C(NCc1ccncc1)N1CCC(=C2c3ccc(Cl)cc3SCc3cccnc32)CC1,43,IC50 [1]: 1700 nM
O=C(Cc1cc[n+]([O-])cc1)N1CCC(=C2c3ccc(Cl)cc3OCc3cccnc32)CC1,1520,inhibition [4]: 41%
CN1Cc2cccnc2C(N2CCN(C(=O)Cc3ccncc3)CC2)c2ccc(Cl)cc21 (stereo not given),840,inhibition [4]: 0%
O=C(CSc1cc[n+]([O-])cc1)N1CCC(=C2c3ccc(Cl)cc3SCc3cccnc32)CC1,620,IC50 [1]: 5000 nM
N#CN/C(=N\Cc1ccncc1)N1CCC(=C2c3ccc(Cl)cc3OCc3cccnc32)CC1,,inhibition [5]: 25%
O=C(Cc1cc[n+]([O-])cc1)N1CCN(C2c3ccc(Cl)cc3S(=O)(=O)Cc3cccnc32)CC1 (stereo not given),3400,
N#CN/C(=N\Cc1ccc[n+]([O-])c1)N1CCC(=C2c3ccc(Cl)cc3SCc3cccnc32)CC1,38,inhibition [4]: 26%
NC(=O)N1CCC(CC(=O)N2CCC(=C3c4ccc(Cl)cc4S(=O)(=O)Cc4cccnc43)CC2)CC1,,inhibition [3]: 35%
O=C(Cc1ccncc1)N1CCN(C2c3ccc(Cl)cc3SCc3cccnc32)CC1 (stereo in doubt; 40),1000,
CN1Cc2cccnc2C(N2CCN(C(=O)CC3CCNCC3)CC2)c2ccc(Cl)cc21 (stereo not given),,inhibition [6]: 10%
O=C(Cc1ccncc1)N1CCN(C2c3ccc(Cl)cc3SCc3cccnc32)CC1 (stereo in doubt; 36),32,
CN1Cc2cccnc2C(N2CCN(C(=O)Cc3cc[n+]([O-])cc3)CC2)c2ccc(Cl)cc21 (stereo not given),2700,IC50 [1]: 20000 nM
O=C(Cc1cc[n+]([O-])cc1)N1CCN(C2c3ccc(Cl)cc3SCc3cccnc32)CC1 (stereo not given),79,IC50 [1]: 10000 nM
O=C(Cc1cc[n+]([O-])cc1)N1CCC(=C2c3ccc(Cl)cc3S(=O)(=O)Cc3cccnc32)CC1,,inhibition [3]: 30%
O=C(Cc1ccncc1)N1CCC(=C2c3ccc(Cl)cc3S(=O)(=O)Cc3cccnc32)CC1,560,
O=C(Cc1cc[n+]([O-])cc1)N1CCC(=C2c3ccc(Cl)cc3OCc3cc(Br)cnc32)CC1,110,

# Now from value to compound, other results behind:
IC50 [2] [nM],Structure (SMILES),other results
190,O=C(Cc1ccncc1)N1CCC(=C2c3ccc(Cl)cc3SCc3cccnc32)CC1,IC50 [1]: 4200 nM
1790,CN1CCC(CC(=O)N2CCC(=C3c4ccc(Cl)cc4SCc4cccnc43)CC2)CC1,
920,NC(=O)N1CCC(CC(=O)N2CCC(=C3c4ccc(Cl)cc4SCc4cccnc43)CC2)CC1,IC50 [1]: 3800 nM
590,O=C(CC1CCNCC1)N1CCC(=C2c3ccc(Cl)cc3SCc3cccnc32)CC1,
1100,O=C(CC1CCNCC1)N1CCN(C2c3ccc(Cl)cc3SCc3cccnc32)CC1 (stereo not given),
1120,NC(=O)N1CCC(CC(=O)N2CCN(C3c4ccc(Cl)cc4SCc4cccnc43)CC2)CC1 (stereo not given),
61,N#CN/C(=N\Cc1ccncc1)N1CCN(C2c3ccc(Cl)cc3SCc3cccnc32)CC1 (stereo not given),
2100,CN1CCC(CC(=O)N2CCN(C3c4ccc(Cl)cc4SCc4cccnc43)CC2)CC1 (stereo not given),
140,CN1Cc2cccnc2C(N2CCN(/C(=N/Cc3ccncc3)NC#N)CC2)c2ccc(Cl)cc21 (stereo not given),inhibition [4]: 10%
140,N#CN/C(=N\Cc1ccc[n+]([O-])c1)N1CCN(C2c3ccc(Cl)cc3SCc3cccnc32)CC1 (stereo not given),
